In patent US6887712B1, “Methods and compositions to lower plasma cholesterol levels” (AtheroGenics, Inc., priority 1998, dated 2005):

Key:
[1] = target: T1, specific epitope on apoB-100 of LDL (Homo sapiens, UniProt P04114); test: Immunoreactivity cell-free sandwich ELISA: binding of LDL to capture anti-apoB monoclonal antibody; conditions: for Cell-Free Assay: immunoreactivity cell-free assay of Example 3, yes/no
T1 construct: from tissue; host or cells: LDL particles (plasma lipoprotein)
Excerpt: To determine if the binding of the monosuccinic acid ester to VLDL and LDL can cause a change in the structure of apoB-100, an immunoreactivity assay was designed. This is a sandwich ELISA assay which measures the expression of a specific epitope on apoB-100. Essentially the sandwich ELISA consists of a specific monoclonal antibody directed to that epitope on apoB-100 as a capture antibody laid onto a microtitre plate. […] A second polyclonal antibody is then used to quantify the amount of LDL captured.
The detailed immunoreactivity protocol is as follows. A nunc maxi-sorp microtiter plate is coated overnight at 4° C. with 100 μl of Anti-Human ApoB monoclonal antibody from Boehringer Mannheim (catalog # 1533 975) diluted 1:1000 in PBS pH 7.4. The compounds are dissolved in DMSO with appropriate concentration of LDL for 15 minutes and incubated at 37° C.
The coated microtiter plate is washed three times with 200 μl PBS/0.05% tween, and a sample of 100 μl LDL/Compound or LDL standard is added to each well. The plates are then incubated for 2 hours at room temperature.
The microtiter plate is washed three times with 200 μl PBS/0.05% tween, and 100 μl of 1:2000 Polyclonal Human Anti-ApolipoproteinB from Boehringer Mannheim (catalog # 726 494) in PBS/tween 0.05% is added. The plate is incubated for one hour at room temperature.
The microtiter plate is washed three times with 200 ul PBS/0.05% tween, and 100 μl of 1:2000 Anti-Sheep Ig peroxidase from Boehringer Mannheim (catalog # 605 345) in PBS/05% tween is added. The plate is incubated for one hour at room temperature.
The microtiter plate is washed three times with 200 ul PBS/0.05% tween, and 100 μl of TMB substrate is added and incubated for 5-10 minutes in the dark. The reaction is stopped with 15 μl 8N H2SO4 and read on the Bio-Rad Microplate plate reader at 450 nm within 30 minutes.

plasma cholesterol = test: Plasma cholesterol lowering in hamsters; set-up: species or system hamster; conditions: ability to lower plasma cholesterol in vivo in hamsters, yes/no
Method: The monosuccinic acid ester of probucol and several other compounds were tested in vitro in the immunoreactivity cell-free assay described above in Example 3 and in vivo in hamsters for their ability to lower plasma cholesterol.

T1 sequence (P04114 28-4563): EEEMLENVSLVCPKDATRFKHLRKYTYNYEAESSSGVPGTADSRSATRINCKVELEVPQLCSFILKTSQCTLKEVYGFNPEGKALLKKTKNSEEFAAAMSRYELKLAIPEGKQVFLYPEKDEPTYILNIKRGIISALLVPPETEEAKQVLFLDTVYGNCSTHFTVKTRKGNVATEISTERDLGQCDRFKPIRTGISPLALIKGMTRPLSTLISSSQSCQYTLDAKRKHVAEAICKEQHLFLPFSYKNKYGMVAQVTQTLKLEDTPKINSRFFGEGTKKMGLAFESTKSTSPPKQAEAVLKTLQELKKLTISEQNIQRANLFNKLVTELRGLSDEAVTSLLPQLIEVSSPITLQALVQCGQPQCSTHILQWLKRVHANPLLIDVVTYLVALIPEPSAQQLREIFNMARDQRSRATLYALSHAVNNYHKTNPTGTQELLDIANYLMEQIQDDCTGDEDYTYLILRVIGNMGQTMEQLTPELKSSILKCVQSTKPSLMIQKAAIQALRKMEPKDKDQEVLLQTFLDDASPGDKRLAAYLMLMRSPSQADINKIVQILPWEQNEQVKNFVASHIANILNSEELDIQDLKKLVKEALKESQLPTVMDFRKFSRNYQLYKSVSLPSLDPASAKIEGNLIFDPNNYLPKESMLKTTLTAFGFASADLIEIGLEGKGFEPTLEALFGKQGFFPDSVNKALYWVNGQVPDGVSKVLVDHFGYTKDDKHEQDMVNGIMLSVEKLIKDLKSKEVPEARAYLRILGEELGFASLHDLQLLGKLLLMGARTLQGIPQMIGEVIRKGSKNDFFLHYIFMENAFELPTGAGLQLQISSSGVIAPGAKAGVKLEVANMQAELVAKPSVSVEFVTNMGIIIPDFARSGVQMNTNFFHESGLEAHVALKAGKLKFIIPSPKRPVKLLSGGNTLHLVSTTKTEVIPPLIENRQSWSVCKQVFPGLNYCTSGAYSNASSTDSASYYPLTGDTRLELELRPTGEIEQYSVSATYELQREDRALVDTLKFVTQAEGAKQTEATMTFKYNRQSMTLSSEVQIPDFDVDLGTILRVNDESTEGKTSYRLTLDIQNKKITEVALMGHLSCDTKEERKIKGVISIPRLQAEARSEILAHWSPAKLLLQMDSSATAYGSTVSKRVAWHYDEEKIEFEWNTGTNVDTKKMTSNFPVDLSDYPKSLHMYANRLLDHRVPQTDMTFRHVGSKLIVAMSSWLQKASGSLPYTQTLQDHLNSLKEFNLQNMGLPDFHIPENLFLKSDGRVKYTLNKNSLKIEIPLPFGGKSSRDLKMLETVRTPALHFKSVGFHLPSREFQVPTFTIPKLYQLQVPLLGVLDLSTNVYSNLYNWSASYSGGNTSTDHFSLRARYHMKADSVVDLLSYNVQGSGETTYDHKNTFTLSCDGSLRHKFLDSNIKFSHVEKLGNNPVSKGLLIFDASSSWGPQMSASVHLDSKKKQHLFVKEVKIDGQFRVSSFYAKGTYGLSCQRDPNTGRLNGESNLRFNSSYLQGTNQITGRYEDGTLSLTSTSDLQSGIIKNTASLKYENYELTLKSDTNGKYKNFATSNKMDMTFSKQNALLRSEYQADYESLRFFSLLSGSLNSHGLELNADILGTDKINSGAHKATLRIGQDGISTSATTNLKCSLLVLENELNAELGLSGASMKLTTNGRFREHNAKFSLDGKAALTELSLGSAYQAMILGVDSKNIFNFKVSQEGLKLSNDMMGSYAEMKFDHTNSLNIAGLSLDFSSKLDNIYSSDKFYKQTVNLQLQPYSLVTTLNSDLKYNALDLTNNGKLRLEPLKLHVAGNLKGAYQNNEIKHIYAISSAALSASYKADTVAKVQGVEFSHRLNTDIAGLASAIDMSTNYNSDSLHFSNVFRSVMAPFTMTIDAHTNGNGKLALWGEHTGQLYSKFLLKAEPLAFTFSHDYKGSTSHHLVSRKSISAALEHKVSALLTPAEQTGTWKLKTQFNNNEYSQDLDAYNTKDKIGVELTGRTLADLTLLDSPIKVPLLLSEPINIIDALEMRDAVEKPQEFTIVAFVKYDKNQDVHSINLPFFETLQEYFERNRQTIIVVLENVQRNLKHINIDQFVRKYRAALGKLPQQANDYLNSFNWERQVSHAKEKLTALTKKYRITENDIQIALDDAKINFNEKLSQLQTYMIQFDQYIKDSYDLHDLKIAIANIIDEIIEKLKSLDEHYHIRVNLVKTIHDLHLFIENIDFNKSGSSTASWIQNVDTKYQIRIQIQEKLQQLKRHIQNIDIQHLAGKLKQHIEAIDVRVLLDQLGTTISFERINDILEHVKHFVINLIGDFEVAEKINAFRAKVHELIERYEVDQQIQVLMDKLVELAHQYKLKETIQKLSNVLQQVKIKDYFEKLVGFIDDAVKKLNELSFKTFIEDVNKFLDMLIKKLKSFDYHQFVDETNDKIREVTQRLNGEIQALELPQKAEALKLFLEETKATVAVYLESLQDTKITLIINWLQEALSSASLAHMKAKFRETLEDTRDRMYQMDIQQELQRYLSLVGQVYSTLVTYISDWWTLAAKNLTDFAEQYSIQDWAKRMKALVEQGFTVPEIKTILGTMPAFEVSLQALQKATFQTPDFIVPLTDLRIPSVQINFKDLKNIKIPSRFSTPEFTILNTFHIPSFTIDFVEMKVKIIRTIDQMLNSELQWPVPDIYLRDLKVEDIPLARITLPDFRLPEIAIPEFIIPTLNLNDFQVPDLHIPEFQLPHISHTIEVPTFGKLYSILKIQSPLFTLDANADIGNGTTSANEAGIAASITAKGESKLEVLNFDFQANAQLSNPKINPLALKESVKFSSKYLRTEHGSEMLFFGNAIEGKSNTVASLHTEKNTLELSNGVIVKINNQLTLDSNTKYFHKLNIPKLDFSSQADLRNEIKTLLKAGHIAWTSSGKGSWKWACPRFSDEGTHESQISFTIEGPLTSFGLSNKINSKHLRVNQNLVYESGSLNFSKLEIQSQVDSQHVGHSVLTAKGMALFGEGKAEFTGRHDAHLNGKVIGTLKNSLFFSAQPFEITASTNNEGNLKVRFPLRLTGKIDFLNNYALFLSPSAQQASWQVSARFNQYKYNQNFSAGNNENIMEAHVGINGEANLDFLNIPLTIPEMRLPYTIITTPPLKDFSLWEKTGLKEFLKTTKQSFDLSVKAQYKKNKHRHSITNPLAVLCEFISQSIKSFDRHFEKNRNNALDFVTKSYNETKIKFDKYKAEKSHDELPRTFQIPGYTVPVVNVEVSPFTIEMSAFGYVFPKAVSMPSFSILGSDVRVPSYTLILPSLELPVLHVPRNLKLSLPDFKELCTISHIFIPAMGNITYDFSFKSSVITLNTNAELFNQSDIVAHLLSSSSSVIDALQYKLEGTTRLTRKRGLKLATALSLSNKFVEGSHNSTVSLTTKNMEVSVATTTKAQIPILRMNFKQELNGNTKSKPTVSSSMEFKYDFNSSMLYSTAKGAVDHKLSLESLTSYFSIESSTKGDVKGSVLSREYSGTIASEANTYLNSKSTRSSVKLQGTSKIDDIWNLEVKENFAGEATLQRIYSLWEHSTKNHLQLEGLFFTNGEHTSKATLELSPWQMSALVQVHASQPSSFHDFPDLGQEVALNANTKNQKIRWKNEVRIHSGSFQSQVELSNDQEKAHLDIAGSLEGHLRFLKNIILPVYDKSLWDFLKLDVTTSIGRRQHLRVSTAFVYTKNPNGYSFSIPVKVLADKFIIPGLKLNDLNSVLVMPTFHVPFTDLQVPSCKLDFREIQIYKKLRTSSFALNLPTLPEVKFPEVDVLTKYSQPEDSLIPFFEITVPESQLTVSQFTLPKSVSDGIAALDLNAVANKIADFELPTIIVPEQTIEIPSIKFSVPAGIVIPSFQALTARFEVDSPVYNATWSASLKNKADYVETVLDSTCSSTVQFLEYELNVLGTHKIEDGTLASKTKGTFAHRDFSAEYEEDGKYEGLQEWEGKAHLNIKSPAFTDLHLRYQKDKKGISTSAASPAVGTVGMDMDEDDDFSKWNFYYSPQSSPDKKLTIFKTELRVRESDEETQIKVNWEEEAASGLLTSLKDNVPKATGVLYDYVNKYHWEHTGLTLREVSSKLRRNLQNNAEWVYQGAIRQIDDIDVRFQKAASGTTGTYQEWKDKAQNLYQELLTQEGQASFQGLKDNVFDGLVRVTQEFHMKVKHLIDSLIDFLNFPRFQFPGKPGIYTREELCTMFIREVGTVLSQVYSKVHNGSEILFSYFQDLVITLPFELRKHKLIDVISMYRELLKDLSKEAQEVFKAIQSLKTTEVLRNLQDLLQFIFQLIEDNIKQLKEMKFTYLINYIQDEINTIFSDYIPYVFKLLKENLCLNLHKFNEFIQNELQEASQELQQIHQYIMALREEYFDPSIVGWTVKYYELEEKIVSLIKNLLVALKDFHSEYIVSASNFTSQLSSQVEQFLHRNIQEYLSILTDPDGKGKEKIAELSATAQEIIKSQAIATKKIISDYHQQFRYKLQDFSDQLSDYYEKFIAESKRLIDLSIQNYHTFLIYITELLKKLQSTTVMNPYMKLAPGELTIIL

Compound: CC(C)(C)c1cc(SCc2ccc(F)cc2)cc(C(C)(C)C)c1O [2,6-di-tert-butyl-4-[(4-fluorobenzyl)thio]phenol]
- Cell-Free Assay [1]: no
- Hamster (plasma cholesterol): no

Compound: vitamin E [reference compound]
- effect on binding of LDL to the capture monoclonal antibody (FIG. 6a) [1]: no significant effect

Compound: CN(C)C(=O)c1ccc(CSc2cc(C(C)(C)C)c(O)c(C(C)(C)C)c2)cc1 [N,N-dimethyl-4-[(3,5-di-tert-butyl-4-hydroxyphenylthio)methyl]benzamide]
- Cell-Free Assay [1]: no
- Hamster (plasma cholesterol): yes

Compound: O=C(O)CCC(=O)O [succinate, reference compound]
- effect on binding of LDL to the capture monoclonal antibody (FIG. 6a) [1]: no significant effect

Compound: CC(C)(C)c1cc(SCc2cccc(OC(F)(F)F)c2)cc(C(C)(C)C)c1O [2,6-di-tert-butyl-4-[(3-trifluoromethoxy)benzylthio]phenol]
- Cell-Free Assay [1]: no
- Hamster (plasma cholesterol): no

Compound: CCCN(CCC)C(=O)c1ccc(CSc2cc(C(C)(C)C)c(O)c(C(C)(C)C)c2)cc1 [N,N-dipropyl-4-[(3,5-di-tert-butyl-4-hydroxyphenylthio)methyl]benzamide]
- Cell-Free Assay [1]: no
- Hamster (plasma cholesterol): no

Compound: CC(C)(C)c1cc(SCc2ccc(C(F)(F)F)cc2)cc(C(C)(C)C)c1O [2,6-di-tert-butyl-4-thio-(4′-(trifluoromethyl)benzyl) phenol]
- Cell-Free Assay [1]: yes
- Hamster (plasma cholesterol): yes

Compound: CN(C)C(=O)Cc1ccc(CSc2cc(C(C)(C)C)c(O)c(C(C)(C)C)c2)cc1 [N,N-dimethyl-4-[(3,5-di-tert-butyl-4-hydroxyphenylthio)methyl]phenylacetamide]
- Cell-Free Assay [1]: yes
- Hamster (plasma cholesterol): yes

Compound: CN(C)S(=O)(=O)c1ccc(CSc2cc(C(C)(C)C)c(O)c(C(C)(C)C)c2)cc1 [2,6-di-tert-butyl-4-thio-(4′-methyl-N,N-dimethylbenzenesulfonamide) phenol]
- Cell-Free Assay [1]: yes
- Hamster (plasma cholesterol): yes

Compound: Mono[4-(3,5-di-tert-butyl-4-hydroxybenzyl)2,6-di-tert-butylphenyl] succinate
- Cell-Free Assay [1]: yes
- Hamster (plasma cholesterol): no

Compound: COC(=O)c1ccc(CSc2cc(C(C)(C)C)c(O)c(C(C)(C)C)c2)o1 [Methyl 5-(3,5-id-tert-butyl-4-hydroxyphenylthio)methyl-2-furoate]
- Cell-Free Assay [1]: yes
- Hamster (plasma cholesterol): yes

Compound: CC(C)(Sc1cc(C(C)(C)C)c(O)c(C(C)(C)C)c1)Sc1cc(C(C)(C)C)c(OC[C@@H](O)[C@@H](O)[C@H](O)[C@@H](O)C=O)c(C(C)(C)C)c1 [6-deoxy-6-(probucol-1-yl)-D-glucose]
- Cell-Free Assay [1]: yes
- Hamster (plasma cholesterol): yes

Compound: CC(C)(C)c1cc(SCc2ccc(CCO)cc2)cc(C(C)(C)C)c1O [2,6-di-tert-butyl-4-thio-(4′-(methyl)phenylethyl alcohol))phenol]
- Cell-Free Assay [1]: yes
- Hamster (plasma cholesterol): yes

Compound: CCN(CC)S(=O)(=O)c1ccc(CSc2cc(C(C)(C)C)c(O)c(C(C)(C)C)c2)cc1 [N,N-diethyl-4-[3,5-di-tert-butyl-4-hydroxyphenylthio)methyl]benzene-sulfonamide]
- Cell-Free Assay [1]: no
- Hamster (plasma cholesterol): no

Compound: CC(C)(C)c1cc(SCc2ccc(F)cc2C(F)(F)F)cc(C(C)(C)C)c1O [2,6-di-tert-butyl-4-[4-fluoro-2-(trifluoromethyl)benzylthio]phenol]
- Cell-Free Assay [1]: no
- Hamster (plasma cholesterol): no

Compound: CC(C)(C)c1cc(SCC(=O)c2ccc([N+](=O)[O-])cc2)cc(C(C)(C)C)c1O [α-(3,5-di-tert-butyl-4-hydroxyphenylthio)-4-nitro-acetophenone]
- Cell-Free Assay [1]: no
- Hamster (plasma cholesterol): yes

Compound: Cc1c(C)c2c(c(C)c1OC(=O)CCC(=O)O)CC[C@@](C)(CCC[C@H](C)CCC[C@H](C)CCCC(C)C)O2 [vitamin E succinate, reference compound]
- effect on binding of LDL to the capture monoclonal antibody (FIG. 6a) [1]: increased the binding of LDL
